Patent publication US20250269000A1, “ANTI-TUMOUR RESPONSES TO CYTOKERATINS” (SCANCELL LIMITED, priority 2020, published 2025)
Where a SMILES comes first, the peptide text is derived from it. Where no end group is shown, it is not given here. [ ]: non-standard residue; d: D form. Cit = NC(=O)NCCC[C@H](N)C(=O)O

Columns and labels:
[1] = test system: B16 HHDII/iDP4 tumour cells; test: Tumour challenge, B16 HHDII/iDP4 in HHDII/DP4 mice; assay type: in vivo; settings: immunised tumour bearing HHDII/DP4 mice
Text: HHDII/DP4 mice were challenged with B16 tumour with IFNγ inducible DP4. Four days later the HHDII/DP4 mice were immunised with Cyk8 371-388 cit or Cyk8 371-388 wt peptide on days 4, 11 and 18. Overall survival (A), tumour volume (B) at day 29 and tumour volume throughout the study (C), post tumour implant are shown for unimmunised control mice and mice immunised with either Cyk8 371-388 cit peptide or Cyk8 371-388 wt peptide. Statistical differences between immunised and control mice were determined by Mantel-Cox test, p values are shown. The tumour volume medians and p values are shown as determined by Mann Whitney U test, n=10 in all group.
HHDII/DP4 mice were challenged with B16 tumour with IFNγ inducible DP4. Four days later the HHDII/DP4 mice were immunised with Cyk8 371-388 cit peptide on days 4, 11 and 18. Overall survival (A), tumour volume (B) at day 24 and tumour volume throughout the study (C), post tumour implant are shown for unimmunised control mice and mice immunised with Cyk8 101-120 cit peptide. Statistical differences between immunised and control mice were determined by Mantel-Cox test, p values are shown. The tumour volume medians and p values are shown as determined by Mann Whitney U test, n=10 in all group.
For tumour challenge experiments, mice were challenged with 1×10^5 B16 HHDII/iDP4 cells subcutaneously on the right flank […] before primary immunisation (unless stated otherwise) and then immunised as described above. Tumour growth was monitored at 3-4 days intervals and mice humanely euthanised once tumour reached ≥10 mm in diameter.
The effect of immunisation with Cyk8 371-388 (cit and wt) on the growth of the mouse B16 melanoma cell line transfected with IFNγ inducible human DP4 (iDP4) was assessed in HHDII/DP4 transgenic mice (FIG. 9A). […]
The effect of immunisation with Cyk8 101-120 cit on the growth of the mouse B16 melanoma cell line transfected with IFNγ inducible human DP4 (iDP4) was assessed in HHDII/DP4 transgenic mice (FIG. 10A). […]

[2] = test system: HHDII/DP4 transgenic mice; test: Ex vivo IFNγ ELISpot on splenocytes of peptide-immunised HHDII/DP4 mice; assay type: in vivo, mouse; settings: for IFNγ responses detected in immunised mice: 25 μg peptide s.c. with CpG/MPLA once a week for three weeks, ELISpot 7 days after third immunisation
Experimental: The HHDII/HLA-DP4 transgenic strain of mouse as described in patent WO2013/017545 A1 (EMMA repository, France) and C57BL/6 mice (Charles River, UK) were used, aged between 8 and 12 weeks, and cared for by the staff at Nottingham Trent University. All work was carried out under a Home Office project licence. Peptides were dissolved in 10% dimethylformamide to 1 mg/mL and then emulsified (a series of dilutions) with the adjuvant CpG and MPLA 6 μg/mouse of each (Invivogen, UK). Peptides (25 μg/mouse) were injected subcutaneously at the base of the tail.
ELISpot assays were performed using murine IFNγ capture and detection reagents according to the manufacturer's instructions (Mabtech, Sweden). In brief, anti-IFNγ antibody was coated onto wells of a 96-well Immobilin-P plate. Synthetic peptides (at a variety of concentrations) and 5×10^5 per well splenocytes were added to the wells of the plate in triplicate. LPS at 5 μg/mL was used as a positive control. Peptide pulsed target cells were added where relevant at 5×10^4 per well in triplicate and plates incubated for 40 hours at 37° C. After incubation, captured IFNγ was detected by a biotinylated anti-IFNγ antibody and developed with a streptavidin alkaline phosphatase and chromogenic substrate. Lipopolysaccharide (LPS; 5 μg/mL) was used as a positive control. For blocking studies, anti-CD4 blocking antibody (RPA-T4) and anti-CD8 blocking antibody (2.43) from Bioxcell were used at 20 μg/mL. Spots were analysed and counted using an automated plate reader (Cellular Technologies Ltd).
HHDII/DP4 and C57BL/6 mice were immunised with human citrullinated peptides in combination with CpG/MPLA as an adjuvant. 25 μg of peptide was administered subcutaneously as a single immunisation given once a week for three weeks Mice were culled 7 days after the third immunisation, the immune response to each peptide was assessed by ex vivo IFNγ ELISpot (FIG. 2). We have previously shown that citrullinated peptides can induce responses in the transgenic DR4 mouse strain. Given that different mouse strains have different MHC repertoires, the transgenic strain HHDII/DP4 and non-transgenic C57BL/6 mice were used for screening.
To determine if the immune response to the Cyk8 peptides is specific to the citrullinated peptide and not the wild type (wt) version, HHDII/DP4 transgenic mice were immunised with Cyk8 101-120 cit, 133-151 cit, 217-236 cit, 371-388 cit, 381-399 cit or Cyk8 101 wt, 133-151 wt, 371-388 wt peptides. HHDII/DP4 mice received 25 μg peptide with CpG/MPLA subcutaneously once a week for three weeks. Mice were culled 7 days after the third immunisation, the immune response to each peptide was assessed by ex vivo ELISpot (FIGS. 3A and 3B).
To determine whether the response to Cyk8 8-26 cit, Cyk8 101-120 cit, Cyk8 133-151 cit, Cyk8 371-388 cit, Cyk8 381-399 cit is CD4 dependent HHDII/DP4 transgenic mice and C57BL/6 mice received 25 μg peptide subcutaneously in combination with CpG/MPLA as an adjuvant, once a week for three weeks (FIG. 6A HHDII/DP4, FIG. 6B C57BL/6). Mice were culled 7 days after the third immunisation, an ELISpot assay was performed in the presence of an anti CD4 or CD8 antibody. […]

[3] = HHDII/DP4, blocking antibody 20 μg/mL

Row | Compound | associated toxicity [1] | IFNγ responses detected in immunised mice [2] | further results
1 | CC[C@H](C)[C@H](NC(=O)[C@H](Cc1ccccc1)NC(=O)[C@H](CO)NC(=O)[C@H](C)NC(=O)[C@H](Cc1ccccc1)NC(=O)[C@@H](N)CCCCN)C(=O)N[C@@H](CC(=O)O)C(=O)N[C@@H](CCCCN)C(=O)N[C@H](C(=O)N[C@@H](CCCNC(N)=O)C(=O)N[C@@H](Cc1ccccc1)C(=O)N[C@@H](CC(C)C)C(=O)N[C@@H](CCC(=O)O)C(=O)N[C@@H](CCC(N)=O)C(=O)N[C@@H](CCC(N)=O)C(=O)N[C@@H](CC(N)=O)C(=O)N[C@@H](CCCCN)C(=O)N[C@@H](CCSC)C(=O)N[C@@H](CC(C)C)C(=O)N[C@@H](CCC(=O)O)C(=O)O)C(C)C [Cyk8 101-120 cit, KFASFIDKV-cit-FLEQQNKMLE] (H-KFASFIDKV[Cit]FLEQQNKMLE-OH) | no associated toxicity |  | 
2 | CC[C@H](C)[C@H](NC(=O)[C@H](CCC(=O)O)NC(=O)[C@@H](NC(=O)[C@H](CC(=O)O)NC(=O)[C@H](CC(C)C)NC(=O)[C@H](C)NC(=O)[C@H](CC(C)C)NC(=O)[C@H](CCCCN)NC(=O)[C@@H](NC(=O)[C@H](CC(N)=O)NC(=O)[C@H](CCSC)NC(=O)[C@H](CC(C)C)NC(=O)[C@H](CCC(=O)O)NC(=O)[C@H](CCC(N)=O)NC(=O)[C@H](Cc1ccc(O)cc1)NC(=O)[C@H](CCC(=O)O)NC(=O)[C@H](CCCNC(N)=O)NC(=O)[C@@H](N)CC(C)C)C(C)C)[C@@H](C)CC)C(=O)O [Cyk8 371-388 cit, L-cit-EYQELMNVKLALDIEI] (H-L[Cit]EYQELMNVKLALDIEI-OH) | no associated toxicity |  | 
3 | CC[C@H](C)[C@H](NC(=O)[C@H](CCC(=O)O)NC(=O)[C@@H](NC(=O)[C@H](CC(=O)O)NC(=O)[C@H](CC(C)C)NC(=O)[C@H](C)NC(=O)[C@H](CC(C)C)NC(=O)[C@H](CCCCN)NC(=O)[C@@H](NC(=O)[C@H](CC(N)=O)NC(=O)[C@H](CCSC)NC(=O)[C@H](CC(C)C)NC(=O)[C@H](CCC(=O)O)NC(=O)[C@H](CCC(N)=O)NC(=O)[C@H](Cc1ccc(O)cc1)NC(=O)[C@H](CCC(=O)O)NC(=O)[C@H](CCCNC(=N)N)NC(=O)[C@@H](N)CC(C)C)C(C)C)[C@@H](C)CC)C(=O)O [Cyk8 371-388 wt, LREYQELMNVKLALDIEI, reference compound] (H-LREYQELMNVKLALDIEI-OH) | no associated toxicity |  | 
4 | KFASFIDKVRFLEQQNKMLE (listed as Homo sapiens) [Cyk8 101-120 wt, wild type (unmodified) Cyk8 101-120 peptide, reference compound] |  | Low to moderate | 
5 | KLALDIEIATY-cit-KLLEGEE (KLALDIEIATY[Cit]KLLEGEE) [Cyk8 381-399 cit, Cyk8 381-399, citrullinated at position 392] |  | Moderate to high | IFNγ response in the presence of the CD8 antibody [2, 3]: significantly reduced; IFNγ response in the presence of the anti CD4 antibody [2, 3]: significantly reduced; cross-reactivity of the response to the wt version ([2]; HHDII/DP4 mice immunised with cit peptide): no cross-reactivity; IFNγ response to citrullinated peptide compared to media only ([2]; screening, HHDII/DP4 mice, 25 μg peptide with CpG/MPLA weekly for three weeks): significant immune responses; T cell responses in HLA-DP4 transgenic mice ([2]; summary statement): potent T cell responses; reactivity to the unmodified wildtype sequence ([2]; summary statement): minimal reactivity
6 | RSNMDNMFESYINNLRRQL (listed as Homo sapiens) [Cyk8 131-15 wt, wild type (unmodified) Cyk8 133-151 peptide, reference compound] |  | Low to moderate | 
